The results in this text go back to the supplement of paper PMC11208160.

The data set is described as follows: recombinant barcode read abundance after kanamycin selection (control-corrected) (log10(CPM+1)); higher = more efficient recombination; sequences stand for … in AGTGCAGAGAAAATCGGCCAGTTTTCTCTGCCTGCAGTCCGCATGCCGT…AGATTTATGCAGCGGACTGCCTTTCTCCCAAAGTGATAAACCGGACAGTATCATGGACCGGTTTTCCCGGTAATCCGTATTTGCAAGGTTGGTTTCACT; site = the 11-nt target. The method in brief:
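Pooled oligos, each joining a target to an IS621 bridge RNA target-binding loop, were cloned and co-electroporated with a donor plasmid into E. coli. Selective plates carried chloramphenicol/ampicillin/kanamycin and 0.1 mM IPTG, while chloramphenicol/ampicillin LB agar served as control, with two replicates of each. Recombination efficiency rests on averaged, control-corrected counts per million of barcodes at recombinant junctions, shown as log10(CPM+1).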
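Also: IS621 recombinase and bridge RNA in Escherichia coli cells.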

“CAACCGGCTTGGGTTCTAACCTGTTGCCT (site CAACCGACTAG)”: the “recombinant barcode read abundance (log10)” value was 0.0354.

With “CAACCGGCTTGGGTTCTAACCTGTTGCCT (site CAACCGCCTAG)”, the “recombinant barcode read abundance (log10)” value is 0.255.

With “CAACCGGCTTGGGTTCTAACCTGTTGCCT (site CAACCGGCTAG)”, the “recombinant barcode read abundance (log10)” value stood at 0.986.

Turning to “CAACCGGCTTGGGTTCTAACCTGTTGCCT (site CAACCGTCTAG)”, the “recombinant barcode read abundance (log10)” value was 0.111.

Take “CAAGGGCCTTGGGTTCTAACCTGTTGCCT (site CAAAGGCCTAG)”: the “recombinant barcode read abundance (log10)” value was determined as 0.423.

As to “CAAGGGCCTTGGGTTCTAACCTGTTGCCT (site CAACGGCCTAG)”, the “recombinant barcode read abundance (log10)” value was found to be 0.0504.

With “CAAGGGCCTTGGGTTCTAACCTGTTGCCT (site CAAGGGCCTAG)”, the “recombinant barcode read abundance (log10)” value stood at 0.701.

Turning to “CAAGGGCCTTGGGTTCTAACCTGTTGCCT (site CAATGGCCTAG)”, the “recombinant barcode read abundance (log10)” value was found to be 0.375.

“CAAGTAGCTTGGGTTCTAACCTGTTGCCT (site CAAGTAGCTAG)”: the “recombinant barcode read abundance (log10)” value amounted to 0.591.

As for “CAAGTAGCTTGGGTTCTAACCTGTTGCCT (site CAAGTCGCTAG)”, the “recombinant barcode read abundance (log10)” value was determined as 0.123.

Take “CAAGTAGCTTGGGTTCTAACCTGTTGCCT (site CAAGTGGCTAG)”: the “recombinant barcode read abundance (log10)” value was 0.183.

With “CAAGTAGCTTGGGTTCTAACCTGTTGCCT (site CAAGTTGCTAG)”, the “recombinant barcode read abundance (log10)” value came to 0.0368.

As to “CAATAGACTTGGGTTCTAACCTGTTGCCT (site CAATAGACTAG)”, the “recombinant barcode read abundance (log10)” value was found to be 1.19.

Turning to “CAATAGACTTGGGTTCTAACCTGTTGCCT (site TGCACCTCTTA)”, the “recombinant barcode read abundance (log10)” value is 0.0564.

Regarding “CAATCACCTTGGGTTCTAACCTGTTGCTT (site CAAACACCTAA)”, the “recombinant barcode read abundance (log10)” value was 0.109.

As for “CAATCACCTTGGGTTCTAACCTGTTGCTT (site CAACCACCTAA)”, the “recombinant barcode read abundance (log10)” value was 0.461.

As to “CAATCACCTTGGGTTCTAACCTGTTGCTT (site CAAGCACCTAA)”, the “recombinant barcode read abundance (log10)” value turned out to be 0.027.

Regarding “CAATCACCTTGGGTTCTAACCTGTTGCTT (site CAATCACCTAA)”, the “recombinant barcode read abundance (log10)” value was 0.794.

In the case of “CAATCCTCTTGGGTTCTAACCTGTTGCTT (site CAATCCTCTAA)”, the “recombinant barcode read abundance (log10)” value was found to be 0.664.

On to “CAATCCTCTTGGGTTCTAACCTGTTGCTT (site CCATCCTCTAA)”, for which the “recombinant barcode read abundance (log10)” value was 0.

Consider “CAATCGTCTTGGGTTCTAACCTGTTGCGG (site CAATCGTCTCC)”, for which the “recombinant barcode read abundance (log10)” value is 1.68.

Turning to “CAATCGTCTTGGGTTCTAACCTGTTGCGG (site CAGCCGTCTCC)”, the “recombinant barcode read abundance (log10)” value was 0.166.

Consider “CAATGGTCTTGGGTTCTAACCTGTTGCAT (site CAATGGTCTAA)”, for which the “recombinant barcode read abundance (log10)” value is 0.409.

With “CAATGGTCTTGGGTTCTAACCTGTTGCAT (site CAATGGTCTAC)”, the “recombinant barcode read abundance (log10)” value came out at 0.476.

Take “CAATGGTCTTGGGTTCTAACCTGTTGCAT (site CAATGGTCTAG)”: the “recombinant barcode read abundance (log10)” value came to 0.54.

“CAATGGTCTTGGGTTCTAACCTGTTGCAT (site CAATGGTCTAT)”: the “recombinant barcode read abundance (log10)” value came to 2.71.

On to “CAATTGTCTTGGGTTCTAACCTGTTGCGT (site CAATTGTCTAC)”, for which the “recombinant barcode read abundance (log10)” value worked out at 3.47.

For the sequence “CAATTGTCTTGGGTTCTAACCTGTTGCGT (site TAATTGTCTAC)”, the “recombinant barcode read abundance (log10)” value amounted to 0.151.

Take “CACAAGTCTTGGGTTCTAACCTGTTGCTT (site CACAAGTCTAA)”: the “recombinant barcode read abundance (log10)” value was 0.474.

As to “CACAAGTCTTGGGTTCTAACCTGTTGCTT (site CGCACGTCTAA)”, the “recombinant barcode read abundance (log10)” value came to 0.0654.

With “CACAATACTTGGGTTCTAACCTGTTGCCT (site CACAATACTAG)”, the “recombinant barcode read abundance (log10)” value was found to be 1.03.

As for “CACAATACTTGGGTTCTAACCTGTTGCCT (site GCATGACCTCT)”, the “recombinant barcode read abundance (log10)” value worked out at 0.00751.

Consider “CACACAGCTTGGGTTCTAACCTGTTGCCT (site CACAAAGCTAG)”, for which the “recombinant barcode read abundance (log10)” value came out at 0.082.

Regarding “CACACAGCTTGGGTTCTAACCTGTTGCCT (site CACACAGCTAG)”, the “recombinant barcode read abundance (log10)” value was 0.559.

“CACAGGGCTTGGGTTCTAACCTGTTGCGG (site CACAGGGCTCC)”: the “recombinant barcode read abundance (log10)” value was found to be 2.39.

On to “CACAGGGCTTGGGTTCTAACCTGTTGCGG (site CACATGGCTCG)”, for which the “recombinant barcode read abundance (log10)” value was 0.344.

With “CACATCTCTTGGGTTCTAACCTGTTGCCT (site CACATATCTAT)”, the “recombinant barcode read abundance (log10)” value came to 0.0495.

For the sequence “CACATCTCTTGGGTTCTAACCTGTTGCCT (site CACATCTCTAG)”, the “recombinant barcode read abundance (log10)” value turned out to be 1.38.

For the sequence “CACATTCCTTGGGTTCTAACCTGTTGCCT (site AACATTCCTAG)”, the “recombinant barcode read abundance (log10)” value came to 0.158.

Take “CACATTCCTTGGGTTCTAACCTGTTGCCT (site CACATTCCTAG)”: the “recombinant barcode read abundance (log10)” value was found to be 0.17.

As for “CACATTCCTTGGGTTCTAACCTGTTGCCT (site GACATTCCTAG)”, the “recombinant barcode read abundance (log10)” value came out at 0.141.

“CACATTCCTTGGGTTCTAACCTGTTGCCT (site TACATTCCTAG)”: the “recombinant barcode read abundance (log10)” value stood at 0.06.

With “CACCACTCTTGGGTTCTAACCTGTTGCCT (site AACCACTCTAG)”, the “recombinant barcode read abundance (log10)” value was 0.545.

Regarding “CACCACTCTTGGGTTCTAACCTGTTGCCT (site CACCACTCTAG)”, the “recombinant barcode read abundance (log10)” value was 1.56.

As to “CACCACTCTTGGGTTCTAACCTGTTGCCT (site GACCACTCTAG)”, the “recombinant barcode read abundance (log10)” value is 0.108.

“CACCACTCTTGGGTTCTAACCTGTTGCCT (site TACCACTCTAG)”: the “recombinant barcode read abundance (log10)” value was found to be 0.195.

“CACCGTTCTTGGGTTCTAACCTGTTGCTT (site CACCGTTCTAA)”: the “recombinant barcode read abundance (log10)” value came to 0.552.

Regarding “CACCGTTCTTGGGTTCTAACCTGTTGCTT (site CATCGCTCTAA)”, the “recombinant barcode read abundance (log10)” value was found to be 0.0503.

With “CACGAGACTTGGGTTCTAACCTGTTGCCT (site CACGAGACTAG)”, the “recombinant barcode read abundance (log10)” value stood at 2.05.

For “CACGAGACTTGGGTTCTAACCTGTTGCCT (site CACGAGCCTAG)”, the “recombinant barcode read abundance (log10)” value is 0.0856.

On to “CACGAGACTTGGGTTCTAACCTGTTGCCT (site CACGAGGCTAG)”, for which the “recombinant barcode read abundance (log10)” value is 1.02.

Take “CACGAGACTTGGGTTCTAACCTGTTGCCT (site CACGAGTCTAG)”: the “recombinant barcode read abundance (log10)” value was determined as 0.424.

For the sequence “CACGAGTCTTGGGTTCTAACCTGTTGCCT (site CACGAGACTAG)”, the “recombinant barcode read abundance (log10)” value came out at 0.0562.

“CACGAGTCTTGGGTTCTAACCTGTTGCCT (site CACGAGCCTAG)”: the “recombinant barcode read abundance (log10)” value stood at 0.24.

As to “CACGAGTCTTGGGTTCTAACCTGTTGCCT (site CACGAGGCTAG)”, the “recombinant barcode read abundance (log10)” value came out at 0.109.

Consider “CACGAGTCTTGGGTTCTAACCTGTTGCCT (site CACGAGTCTAG)”, for which the “recombinant barcode read abundance (log10)” value came to 1.57.

With “CACGCCTCTTGGGTTCTAACCTGTTGCCT (site AACGCCTCTAG)”, the “recombinant barcode read abundance (log10)” value worked out at 0.116.

Consider “CACGCCTCTTGGGTTCTAACCTGTTGCCT (site CACGCCTCTAG)”, for which the “recombinant barcode read abundance (log10)” value was determined as 1.88.

“CACGCCTCTTGGGTTCTAACCTGTTGCCT (site GACGCCTCTAG)”: the “recombinant barcode read abundance (log10)” value stood at 0.385.
